Data published in US11123408B2, “Compositions and methods for treating nonsteroidal anti-inflammatory drug (NSAID) associated coagulopathy, thrombocytopenia, glanzmann's thrombasthenia, and/or thrombosis” (YALE UNIVERSITY, priority 2011, dated 2021).
“Also recorded” adds a separate entry of the source.

Experiments:
[1] = test system: platelets in platelet rich plasma; assay: Light transmission aggregometry (LTA) in platelet rich plasma; format: cell-based, human; conditions: for inhibition of NPP4/Ap3A-promoted platelet aggregation (qualitative): increasing antagonist concentrations; for platelet aggregation response of enzyme in the presence of 80 μM Ap3A (qualitative): enzyme 50-200 nM
Description: (§1) Whole blood from healthy voluntary donors was collected in accordance with an IRB-approved protocol into blue top vacutainer tubes containing 3.2% sodium citrate. Blood was centrifuged at 1000 RPM for 10 minutes at room temperature to collect platelet rich plasma (PRP). PRP in the supernatant was then transferred to fresh tubes, and the remainder of the specimen was centrifuged at 4000 RPM for 10 minutes to obtain platelet poor plasma (PPP). PRP was adjusted to a final platelet count of 250×10^6 platelets/mL with autologous PPP for use in aggregation studies. Potential donors were excluded if there was a history of a bleeding disorder or current anticoagulant use and donors were instructed to avoid NSAIDs for at least 7 days prior to donation. Approval for the human subjects involved in this research was sought and granted by the Committee for the Protection of Human Subjects, Dartmouth-Hitchcock Medical Center, where these studies were conducted in accordance with the Declaration of Helsinki.
(§2) Light transmission (i.e., optical) and lumi aggregometry were performed on up to four samples from the same individual simultaneously with a Chrono-Log Model 700 Whole Blood/Optical Lumi Aggregometer (Chrono-Log Corporation, Havertown, Pa.) using procedures provided by the manufacturer that are briefly summarized here.
(§3) Platelet aggregation was determined by measuring the change in light transmittance of stirred PRP over time after addition of various agonists. Prior to each experiment the aggregometer was standardized to reflect 100% and 0% light transmittance with PPP and PRP, respectively, from the donor whose platelets were used in each specific experiment. 500 μL PRP was added to cuvettes containing a magnetic stir bar and allowed to pre-warm to 37° C. in the aggregometer wells for 3 minutes prior to initiating aggregation reactions which were then conducted at 37° C. Aggregation reactions were initiated by direct addition of agonists and/or enzymes to warmed, stirred PRP, and were monitored for an increase in light transmittance for 10 minutes. The increase in light transmittance is directly proportional to the amount of aggregation and is amplified and digitized into a computer (HP Compaq, Hewlett-Packard, Palo Alto, Calif.) with the AGGRO/LINK8 for Windows software (Chrono-Log Corporation, Havertown, Pa.) to generate aggregation curves. […] The platelet aggregometry experiments for all concentrations of MRS 2395 (including the 0 μM point) were conducted with the plasma adjusted to a final concentration of 10% DMSO to solubilize the inhibitor.

[2] = test system: platelets in platelet rich plasma; assay: Lumi aggregometry (extracellular ATP, dense granule release) simultaneously with LTA; format: cell-based, human
Description: as §1, §2, §3
In a subgroup of experiments, lumi aggregometry was used to assay the levels of extracellular ATP simultaneously with LTA. Lumi aggregometry measures ATP in the extracellular space over time using a sensitive luminescent assay employing firefly luciferin-luciferase (CHRONO-LUME™ reagent, Chrono-Log Corporation, Havertown, Pa.). ATP binds to luciferin-luciferase and generates light that is then amplified by a high-gain photomultiplier tube in the lumi aggregometer and is measured simultaneously with the optical change in light transmittance caused by platelet aggregation. In experiments in which lumi aggregometry was performed, 450 μL of PRP was transferred to cuvettes containing magnetic stir bars and allowed to pre-warm to 37° C. in the aggregometer wells for 3 minutes. […] Reactions were initiated by the addition of agonists and/or enzymes to warmed PRP and CHRONOLUME′ reagent and were monitored for light generation. […]

[3] = Diadenosine polyphosphate cleavage (linked assay, HPLC, absorbance); format: biochemical; conditions: HPLC or absorbance / real time spectrophotometric assay
Description: NPP4 nucleotide substrates were identified by directly detecting the free phosphate (Pi) product using malachite green (ADP substrate) or by a linked hydrolysis assay with alkaline phosphatase combined with malachite green (lipid substrates and nucleotide substrates without terminal P1) to measure released Pi. 50 μM substrate P1 equivalents (e.g. 25 μM ADP) were treated with 50 nM NPP4 for 1 hr 37 min (lipids) or 3 hr 15 min (all other substrates). For substrates without terminal phosphates, 10 units of calf intestinal alkaline phosphatase (M0290S, 10,000 units/mL, New England Biolabs, Ipswich, Mass.) was added for a final reaction volume of 50 μL. […] The amount of phosphate released was measured by absorbance at 620 nm by a Biotek Synergy Mx plate reader (Winooski, Vt.) in 96-well plates (3679, Corning Inc., Corning, N.Y.) and compared against a phosphate standard curve.
The kinetics of the steady state Ap3A/Ap4A cleavage by NPP4 was measured from time courses of absorbance change at 259 nm using a UV spectrophotometer with a 0.1 cm optical path length cuvette or a stopped-flow device with a 0.2 cm optical path length cell. […] The substrate concentrations higher than 800 μM have absorption too high to be measured by a UV spectrophotometer and stopped-flow, and were therefore measured by HPLC. […]

[4] = Ap3A hydrolysis by NPP enzymes (linked malachite green assay, absorbance change at 259 nm, HPLC); format: biochemical; conditions: linked assay or steady state enzymatic studies
Description: NPP4 nucleotide substrates were identified by directly detecting the free phosphate (Pi) product using malachite green (ADP substrate) or by a linked hydrolysis assay with alkaline phosphatase combined with malachite green (lipid substrates and nucleotide substrates without terminal P1) to measure released Pi. 50 μM substrate P1 equivalents (e.g. 25 μM ADP) were treated with 50 nM NPP4 for 1 hr 37 min (lipids) or 3 hr 15 min (all other substrates). For substrates without terminal phosphates, 10 units of calf intestinal alkaline phosphatase (M0290S, 10,000 units/mL, New England Biolabs, Ipswich, Mass.) was added for a final reaction volume of 50 μL. 100 μL of malachite green (BIOMOL GREEN™, Enzo Life Sciences, Plymouth Meeting, Pa.) was added to quench the reactions. The amount of phosphate released was measured by absorbance at 620 nm by a Biotek Synergy Mx plate reader (Winooski, Vt.) in 96-well plates (3679, Corning Inc., Corning, N.Y.) and compared against a phosphate standard curve.
The kinetics of the steady state Ap3A/Ap4A cleavage by NPP4 was measured from time courses of absorbance change at 259 nm using a UV spectrophotometer with a 0.1 cm optical path length cuvette or a stopped-flow device with a 0.2 cm optical path length cell. The enzymology reactions in 50 mM Tris pH 8.0, 140 mM NaCl, 5 mM KCl, 1 mM MgCl2 and 1 mM CaCl2 were started by addition of 1 μM NPP4 to varying concentrations of Ap3A/Ap4A (up to 800 μM) solution (UV spectrophotometer) or by rapid mixing of NPP4 and Ap3A/Ap4A (stopped-flow). The substrate concentrations higher than 800 μM have absorption too high to be measured by a UV spectrophotometer and stopped-flow, and were therefore measured by HPLC. […] Therefore, the rate of a product production or enzyme turnover measured by the absorption change assay can be calculated by the rate of absorption change
[formula] according to the following formula;
[formula] where Δl is optical path length. The following absorption coefficients were used: Ap3A: 25.75 mM^−1 cm^−1. Ap4A: 25.4 mM^−1 cm^−1. AMP, ADP, and ATP: 15.4 mM^−1 cm^−1. ADP Receptor Inhibitor Assay for NPP4 Inhibition
The HPLC protocol used to measure Ap3A/Ap4A cleavage by NPP4 and for product identification is modified from that of Stocchi et al. (1985, Anal Biochem 146:118-24). The reactions containing varying concentrations of Ap3A/Ap4A in the same buffer as in the absorbance change assay were started by addition of 0.2-1 μM NPP4 and quenched at various time points by equal volume of 3 M formic acid, or 0.5 N KOH and re-acidified by glacial acetic acid to pH 6. The quenched reaction solution was diluted systematically and loaded a HPLC system (Waters, Milford Mass.) and substrates and products were monitored by UV absorbance at 254 or 259 nm. Substrates and products were separated on a C18, 5 μm 250×4.6 mm HPLC column (Higgins Analytical, Mountain View, Calif.), using 15 mM ammonium acetate pH 6.0 solution, with a 0% to 10% (or 20%) methanol gradient. The products and substrate were quantified according to the integration of their correspondent peaks and the formula:
[formula] where [substrate]0 is the initial substrate concentration. The extinction coefficients of Ap3A, Ap4A, AMP, ADP and ATP used in the formula were the same as those used in absorption change assay. If monitoring at 254 nm, substrate and product standards run on the same day as the reactions were used to convert integrated product/substrate peak areas to concentrations. […]

Q: For Nc1ncnc2c1ncn2[C@@H]1O[C@H](COP(=O)(O)OP(=O)(O)OP(=O)(O)OP(=O)(O)OC[C@H]2O[C@@H](n3cnc4c(N)ncnc43)[C@H](O)[C@@H]2O)[C@@H](O)[C@H]1O [Ap4A], which “effect of Ap4A on Ap3A/NPP4-induced platelet aggregation” value ([1]; 80 μM Ap4A added to 100 nM NPP4 and 80 μM Ap3A) is on record?
A: roughly half of the aggregation; also recorded: intermediate degree of platelet aggregation

Q: And the “platelet aggregation response to Ap4A (qualitative)” value ([1]; 80 μM Ap4A alone or in the presence of 100 nM NPP4)?
A: no apparent positive effect on aggregation; also recorded: does not trigger even a primary wave of aggregation

Q: And the “platelet aggregation and granule release, Ap4A with NPP4 (qualitative)” value ([2]; 40 μM Ap4A with 100 nM NPP4)?
A: no measurable platelet aggregation; also recorded: no platelet aggregation and no granule release

Q: With CNc1ncnc2c1ncn2[C@H]1C[C@H](OP(=O)(O)O)[C@@H](COP(=O)(O)O)O1 [MRS 2179] as the molecule, how does the “inhibition of NPP4/Ap3A-promoted platelet aggregation (qualitative)” value ([1]; 50 nM NPP4, 80 μM Ap3A) read?
A: concentration-dependent inhibition of platelet aggregation; also recorded: dose-dependent inhibition of the platelet aggregation response

Q: Which results are given for CNc1nc(Cl)nc2c1ncn2CC(COC(=O)C(C)(C)C)COC(=O)C(C)(C)C [MRS 2395]?
A: inhibition of NPP4/Ap3A-promoted platelet aggregation (qualitative) ([1]; 50 nM NPP4, 80 μM Ap3A): concentration-dependent inhibition of platelet aggregation; also recorded: dose-dependent inhibition of the platelet aggregation response; inhibition of NPP4/Ap3A-promoted platelet aggregation at 200 μM ([1]; 200 μM antagonist, 50 nM NPP4, 80 μM Ap3A, 10% DMSO): complete inhibition

Q: With diadenosine triphosphate [Ap3A] as the molecule, how does the “platelet aggregation response to Ap3A in the presence of 100 nM NPP4 (qualitative)” value ([1]; 100 nM NPP4, dose response of Ap3A) read?
A: induces both the primary and secondary waves of aggregation in a concentration-dependent fashion; also recorded: robust platelet aggregation

Q: And the maximum aggregation ([1]; 40 μM Ap3A in the presence of 100 nM NPP4)?
A: 70%

Q: And the maximum aggregation ([1]; Ap3A 80 μM or higher in the presence of 100 nM NPP4)?
A: greater than 80%

Q: And the “platelet aggregation response, agent alone (qualitative)” value ([1]; agent alone in PRP (Ap3A up to 160 μM; NPP4 100 nM))?
A: triggers a primary wave of aggregation without degranulation, followed by rapid disaggregation; also recorded: only a primary wave of aggregation followed by rapid platelet disaggregation; also recorded: triggers a primary wave of aggregation, which is followed by rapid disaggregation

Q: And the “platelet aggregation and luminescence, Ap3A alone (qualitative)” value ([2]; 40 μM Ap3A alone in PRP)?
A: primary wave of aggregation, followed by rapid disaggregation

B1: NPP4-T70A: inactive mutant NPP4 extracellular domain, catalytic threonine 70 mutated to alanine (protein, UniProt Q9Y6X5 16-407, looked up, variant T70A)
extracellular domain: FRSDSSSSLPPKLLLVSFDGFRADYLKNYEFPHLQNFIKEGVLVEHVKNVFITKAFPNHYSIVTGLYEESHGIVANSMYDAVTKKHFSDSNDKDPFWWNEAVPIWVTNQLQENRSSAAAMWPGTDVPIHDTISSYFMNYNSSVSFEERLNNITMWLNNSNPPVTFATLYWEEPDASGHKYGPEDKENMSRVLKKIDDLIGDLVQRLKMLGLWENLNVIITSDHGMTQCSQDRLINLDSCIDHSYYTLIDLSPVAAILPKINRTEVYNKLKNCSPHMNVYLKEDIPNRFYYQHNDRIQPIILVADEGWTIVLNESSQKLGDHGYDNSLPSMHPFLAAHGPAFHKGYKHSTINIVDIYPMMCHILGLKPHPNNGTFGHTKCLLVDQWCINLPEA
modifications: extracellular domain
Q: Which “platelet aggregation response of enzyme in the presence of 80 μM Ap3A (qualitative)” value [1] does the source give for B1 here?
A: fails to induce aggregation

Q: What about the “platelet aggregation response of enzyme in the presence of 80 μM Ap3A (qualitative)” value ([1]; listed as T70A mutant of NPP4) of the same molecule?
A: no effect on platelet aggregation

Q: What about the “platelet aggregation and dense granule (ATP) release, enzyme with Ap3A (qualitative)” value ([2]; 100 nM enzyme with 40 μM Ap3A) of the same molecule?
A: A similar pattern is observed

Q: And the “diadenosine polyphosphate cleavage (qualitative)” value [3]?
A: did not cleave diadenosine polyphosphates

Q: And the “Ap3A cleavage / hydrolysis (qualitative)” value [4]?
A: incapable of Ap3A hydrolysis
